Measured values as given in US5075301A, “Furan derivatives useful for the treatment of gastro-intestinal disorders” (Kyowa Hakko Kogyo, Co., Ltd., priority 1989, dated 1991).

Columns and labels:
male dd mice = experiment: Acute toxicity test (minimum lethal dose, MLD); assay type: in vivo; details: p.o., 7 days
Procedure: Using male dd mice weighing 20±1 g in groups of 3, each test compound was orally administered (300 mg/kg, p.o.).

ileal strips = experiment: Gastrointestinal motility stimulation test (ileal strip, electric transmural stimulation); set-up: species or system male Hartley guinea pigs; details: Cavia porcellus; for activation at 1 µg/mL: read-out: Amplification Degree (Electric Transmural Stimulation), 10^-6 g/ml; for activation at 10 µg/mL: read-out: Amplification Degree (Electric Transmural Stimulation), 10^-5 g/ml
Procedure: From male Hartley guinea pigs weighing 250-400 g, ileal strips, 2-3 cm long, were isolated. The ileal strip was suspended in a Tyrode's solution bath (30 ml) while supplying a mixture gas of 95% O2 -5% CO2 and maintained at 37±1° C. and using an isotonic transducer the longitudinal contractions of the strip were recorded. Supramaximal electric transmural stimulation of 1-millisecond duration was given at 10-second intervals. Each test compound was dissolved or suspended in physiological saline and added into the organ bath. The effect of each test compound on electric transmural stimulation was calculated from the amplitude of contractions (A) before administration and the amplitude of contractions (B) after administration using the following equation. [formula]

histamine H2 -receptor [1] = experiment: antihistaminic (histamine H2 -receptor blocking) activity; details: no method given
histamine H2 -receptor [2] = details: known; cited from earlier work
gastrointestinal tract = details: Scand. J. Gastroenterol., 21 (Suppl. 121), 30 (1986); cited from earlier work

| SMILES | Acute Toxicity (MLD) (male dd mice) [mg/kg] | activation at 1 µg/mL (ileal strips) [%] | activation at 10 µg/mL (ileal strips) [%] | antihistaminic activity (histamine H2 -receptor [1]) | histamine H2 -receptor blocking activity (histamine H2 -receptor [2]) | activity to stimulate motility of the gastrointestinal tract (gastrointestinal tract) |
| --- | --- | --- | --- | --- | --- | --- |
| N#CC(C#N)=C1NCCN1CCNCc1ccc(CN2CCCCC2)o1 [Compound 28, [1-[2-[(5-Piperidinomethyl-2-furanyl)methylamino]ethyl]-2-imidazolidinylidene]propanedinitrile] | 100 |  |  |  |  |  |
| N#CC(C#N)=C1NCCN1CCNCc1ccc(CN2CCCC2)o1 [Compound 27, [1-[2-[(5-Pyrrolidinylmethyl-2-furanyl)methylamino]ethyl]-2-imidazolidinylidene]propanedinitrile] | > 300 | 12 |  |  |  |  |
| N#CC(C#N)=C1NCCN1CCNCc1ccc(CN2CCSCC2)o1 [Compound 38] | > 300 | 34.5 |  |  |  |  |
| CNC(NCCNCc1ccc(CN(C(C)C)C(C)C)o1)=C(C#N)C#N [Compound 12, [[2-[(5-Diisopropylaminomethyl-2-furanyl)methylamino]ethyl]amino(methylamino)methylene]propanedinitrile] | > 300 | 34.3 | 55.8 |  |  |  |
| CNC(NCCCNCc1ccc(CN(C)C)o1)=C(C#N)C#N [Compound 6, [[3-[(5-Dimethylaminomethyl-2-furanyl)methylamino]propylamino](methylamino)methylene]propanedinitrile] | > 300 |  | 34 |  |  |  |
| CNC(NCCNCc1ccc(CN2CCCC2)o1)=C(C#N)C#N [Compound 13, [[2-[(5-Pyrrolidinylmethyl-2-furanyl)methylamino]ethyl](methylamino)methylene]propanedinitrile] | > 300 | 34.5 | 70.8 |  |  |  |
| CNC(NCCNC(=O)c1ccc(CN(C)C)o1)=C(C#N)C#N [Compound 10, 5-(Dimethylaminomethyl)-N-[2-(1-methylamino-2,2-dicyanovinylamino)ethyl]-2-furancarboxamide] | > 300 | 15.3 | 36.4 |  |  |  |
| CNc1c(NCCNCc2ccc(CN3CCCCC3)o2)c(=O)c1=O [Compound 17, 1-Methylamino-2-[[2-[(5-piperidinomethyl-2-furanyl)methylamino]ethyl]amino]cyclobutene-3,4-dione] | > 300 | 19.5 | 75 |  |  |  |
| CCN(C)Cc1ccc(CNCCN2CCNC2=C(C#N)C#N)o1 [Compound 25, [1-[2-[(5-Ethylmethylaminomethyl-2-furanyl)methylamino]ethyl]-2-imidazolidinylidene]propanedinitrile] | > 300 | 63.5 |  |  |  |  |
| COC1CCCN(Cc2ccc(CNCCN3CCNC3=C(C#N)C#N)o2)C1 (centres unmarked) [Compound 34, [1-[2-[[5-(3-Methoxypiperidinomethyl)-2-furanyl]methylamino]ethyl]-2-imidazolidinylidene]propanedinitrile] | > 300 | 23 | 81.3 |  |  |  |
| CNC(NCCNCc1ccc(CN2CCCCC2)o1)=C(C#N)C#N [Compound 14, [[2-[(5-Piperidinomethyl-2-furanyl)methylamino]ethyl](methylamino)methylene]propanedinitrile] | > 300 | 37.3 | 79.3 |  |  |  |
| CN(CCN1CCNC1=C(C#N)C#N)Cc1ccc(CN2CCCCC2)o1 [Compound 45, [1-[2-[N-(Methyl)-N-[(5-piperidinomethyl-2-furanyl)methyl]amino]ethyl]-2-imidazolidinylidene]-propanedinitrile] | > 300 | 43.8 | 72.1 |  |  |  |
| CC1CCN(Cc2ccc(CNCCN3CCNC3=C(C#N)C#N)o2)CC1 [Compound 32, [1-[2-[[5-(4-Methylpiperidinomethyl)-2-furanyl]methylamino]ethyl]-2-imidazolidinylidene]propanedinitrile] | > 300 | 52 |  |  |  |  |
| CNC(=C[N+](=O)[O-])NCCNCc1ccc(CN(C)C)o1 [Compound 1, N-[2-[(5-Dimethylaminomethyl-2-furanyl)methylamino]ethyl]-N'-methyl-2-nitroethene-1,1-diamine] | > 300 |  | 30 |  |  |  |
| CNC(NCCNCc1ccc(CN(C)C)o1)=C(C#N)C#N [Compound 2, [[2-[(5-Dimethylaminomethyl-2-furanyl)methylamino]ethyl]amino(methylamino)methylene]propanedinitrile] | > 300 | 31 | 80.5 |  |  |  |
| N#CC(C#N)=C1NCCN1CCNCc1ccc(CN2CCCCCC2)o1 [Compound 29, [1-[2-[(5-Perhydroazepinylmethyl-2-furanyl)methylamino]ethyl]-2-imidazolidinylidene]propanedinitrile] | 200 | 68 |  |  |  |  |
| CCN(CC)CCNC(=O)c1cc(Cl)c(N)cc1OC [Metoclopramide, reference compound] | 200 | 18 | 33.4 |  |  |  |
| CNC(=C[N+](=O)[O-])NCCSCc1ccc(CN(C)C)o1 [Ranitidine, reference compound] | > 300 | 35 | 42.2 | found | having histamine H2 -receptor blocking activity | weak |
| CN(C)Cc1ccc(CNCCN2CCNC2=C(C#N)C#N)o1 [Compound 22, [1-[2-[(5-Dimethylaminomethyl-2-furanyl)methylamino]ethyl]-2-imidazolidinylidene]propanedinitrile] | > 300 | 56 |  |  |  |  |
